Experimental data: patent US20140205566A1, “CYCLIC NUCLEUOSIDE DERIVATIVES AND USES THEREOF” (NOVARTIS AG, priority 2012, published 2014)

Key:
[1] = Liver S9 stability determination; assay type: in vitro ADME; details: pooled liver S9 fraction; human liver S9 fraction, 1 μM compound, 37° C., up to 120 mins; read-out: liver S9 t1/2
Excerpt: The liver is the main organ of metabolism and contains a high concentration of drug metabolizing enzymes. Metabolic clearance, particularly hepatic, is one of the main determinants affecting systemic drug exposure following both oral and i.v. administration. To assess the ability of the compounds of the invention to reach a systemic circulation, the hepatic S9 fraction was chosen to test for stability of the compounds. Hepatic S9 fraction was obtained following centrifugation of homogenized liver tissue at 9,000 g. The hepatic S9 fraction is composed of both microsomal and cytosolic fractions and contains all the enzymes contained in microsomes plus additional phase I and phase II cytosolic enzymes.
Stock solutions of each tested compound (100 μM) were prepared in methanol by two subsequent 1:10 dilutions from 10 mM DMSO drug solutions, the final assay concentration was 1 μM. Frozen pooled liver S9 fraction was thawed from −20° C. and diluted in phosphate buffer (with and without NADPH) which was pre-warmed at 37° C. for 10 minutes. The reaction was initiated by addition of compound. Manual sample plates were incubated on a Thermo Max Q 2000 shaker placed in a temperature controlled Sartorius Certomat H hood set at 37° C. Sequential samples were removed at designated timepoints (0, 5, 15, 30, 60 and 120 mins) and quenched with 4 volumes of ice cold acetonitrile (containing internal standard, diazepam), centrifuged and supernatants reconstituted in water (acetonitrile:water, 50:50% v/v). Samples were then analyzed by LCMS/MS or LC-UV to assess parent depletion. In vitro half-life (t1/2) is calculated based on the rate of disappearance of compound from the reaction mixture at incubation timepoints up to 2 hours.

[2] = CCK8 cytotoxicity assay in THP-1 cells; assay type: cell-based; details: human, CCK-8
Method: 4 day cytotoxicity assay using THP-1 cells: THP-1 cells grown in suspension were counted and diluted to 8×10^4 cells/ml in RPMI-1640 media supplemented with 10% fetal bovine serum (FBS) and 1% penicillin/streptomycin. 25 ul of the THP-1 containing media consisting of 2000 cells were dispensed in 384-well tissue culture plate and pre-incubated at room temperature for 30 minutes, followed by 37° C., 5% CO2 overnight in the humidified incubator. On the next day, serial-diluted compound plates were prepared and 125 nl of compounds at various concentrations were then dispensed into the tissue culture well (200× dilution). The plates were then transferred to 37° C., 5% CO2 humidified incubator for additional 96 hours. Cytotoxicity was measured by CCK-8 assay. Briefly, CCK-8 was thawed on bench top and diluted 2.5× with the growth media. 35 ul of the pre-diluted CCK-8 was then introduced into each well and the plates were then further incubated in 37° C., 5% CO2 humidified incubator for 3 hours. The absorbance was read by Envision at 450 nm. Dose response curves were calculated as in the previous section (n=2). The CC50 is estimated as the concentration of the compound which will inhibit 50% of the signal. A positive control (puromycin) was used to ensure the quality of the data.

[3] = CCK8 cytotoxicity assay in HepG2 cells; assay type: cell-based; details: human, CCK-8
Method: HepG2 cells were trypsinized, washed, counted and diluted to 1.6×10^4 cells/ml in DMEM-W/O Glucose, supplemented with 10% Fetal bovine serum (FBS), 1% Penicillin/Streptomycin, 2 mM HEPES, 1 mM Sodium Pyruvate, 10 mM Galactose & 2 mM Glutamine. 25 μl of the media containing 400 cells per well were dispensed in clear 384-well tissue culture plate and incubated at room temperature for 30 minutes. The plate was then transferred and placed at 37° C., 5% CO2 humidified incubator overnight. On the next day, serial-diluted compound plates were prepared and 125 nl of compounds at various concentrations were then dispensed into the tissue culture well (200× dilution). The plates were then transferred to 37° C., 5% CO2 humidified incubator for additional 96 hours. Cytotoxicity was measured by CCK-8 assay. Briefly, CCK-8 was thawed on bench top and diluted 2.5× with the growth media. 35 ul of the pre-diluted CCK-8 was then introduced into each well and the plates were then further incubated in 37° C., 5% CO2 humidified incubator for 3 hours. The absorbance was read by Envision at 450 nm. Dose response curves were calculated as in the previous section. The CC50 is estimated as the concentration of the compound which will inhibit 50% of the signal. A positive control (puromycin) was used to ensure the quality of the data.

dengue virus = experiment: Intracellular nucleoside triphosphate concentration needed to inhibit 50% of viral production (NTP50) in PBMC; assay type: cell-based
Method: NTP50 is defined as the concentration of the nucleoside triphosphate (NTP) that will inhibit 50% of viral production. The NTP50 experiment was performed using cryopreserved PBMC as described above in the Dengue EC50 determination section. Briefly, PBMC was thawed and incubated in RPMI medium containing 2% Fetal Bovine serum (FBS), 1% Penicillin/Streptomycin supplemented with various concentration of a representative compound of the present invention (e.g., Example 2) up to 100 μM. After the intracellular conversion of Example 2 into corresponding nucleoside triphosphate reached steady state (24 hours at 37° C. in the incubator), the cells were spun down, washed with 0.9% NaCl solution and lyzed in RIPA buffer (50 mM Tris pH 7.5, 150 mM NaCl, 1% NP40) containing with protease and phosphotase inhibitor. The cells were further incubated at room temperature for complete lysis of the cells and the cell debris spun down at 13,000 g in at 4° C. for 20 minutes. The lysate was transferred into […] and the concentration of the nucleoside triphosphate was measured. The concentration of the nucleoside triphosphate was then plotted against the concentration of Example 2 and a curve of the concentration of the nucleoside triphosphate vs incubated Example 2 was generated using Michaelis-Menten Kinetics with the formula Y=A[Example 2]/B+[Example 2] where Y is the concentration of the nucleoside triphosphate and [Example 2] is the concentration of the compound Example 2. A and B were constants determined by best fitting. By EC50 of [Example 2] in the equation, the intracellular concentration of nucleoside triphosphate which corresponds to 50% reduction of the virus (NTP50) can be determined.
Since all compounds of the present invention would be converted to the same nucleoside triphosphate intracellularly (the structure of NTP is shown below), the NTP50 of all compounds of the present invention would be the same regardless which compound was used in the experiment. NTP50 for the compound Example 2 was measured to be 0.0016 μM in PBMC lysate from 1 million cells with 100 μL of lysis buffer. The Mean Corpuscular Volume of PBMC is approximately 0.3×10^−6 μL/per cell=0.3 μL/1 million cells. By using the literature of Simiele, M. et al. Antimicrob. Agents Chemother. 2011 55, 2976-2978, NTP50=0.0016×(100/0.3)=0.53 μM/1 million cells=0.53×0.3/1.0×10^6=0.159×10^−6 μmol/1 million cells. Thus, from the calculation, the intracellular nucleoside triphosphate concentration needed to inhibit 50% of viral production (NTP50) is around ˜200 fmol/1 million cells.

Structure (SMILES) | half-life at 1 μM [1] [min] | CC50 at 96 h [2] [µM] | CC50 at 96 h [3] [µM] | NTP50 (dengue virus; in PBMC lysate from 1 million cells with 100 μL of lysis buffer) [µM] | NTP50 (dengue virus; intracellular amount, calculated) | NTP50 (dengue virus; intracellular amount, rounded from the calculation) [fmol/1 million cells] | NTP50 (dengue virus; intracellular, corrected with PBMC volume 0.3 μL/1 million cells) [μM/1 million cells]
CCOC(=O)[C@H](C)N[P@@]1(=O)OC[C@H]2O[C@@H](n3cnc4c(OCC)nc(N)nc43)[C@](C)(F)[C@@H]2O1 [Example 1, (S)-ethyl 2-(((2R,4aR,6R,7R,7aR)-6-(2-amino-6-ethoxy-9H-purin-9-yl)-7-fluoro-7-methyl-2-oxidotetrahydro-4H-furo[3,2-d][1,3,2]dioxaphosphinin-2-yl)amino)propanoate] | 76 | > 50 | > 50 | – | – | – | –
CCOc1nc(N)nc2c1ncn2[C@@H]1O[C@@H]2CO[P@@](=O)(N[C@@H](C)C(=O)OC(C)C)O[C@H]2[C@@]1(C)F [Example 2, (S)-isopropyl 2-(((2S,4aR,6R,7R,7aR)-6-(2-amino-6-ethoxy-9H-purin-9-yl)-7-fluoro-7-methyl-2-oxidotetrahydro-4H-furo[3,2-d][1,3,2]dioxaphosphinin-2-yl)amino)propanoate] | 36 | 34 | > 50 | 0.0016 | 0.159×10^−6 μmol/1 million cells | ~200 | 0.53
CCOc1nc(N)nc2c1ncn2[C@@H]1O[C@@H]2CO[P@](=O)(N[C@@H](C)C(=O)OC)O[C@H]2[C@@]1(C)F [Example 3, (S)-methyl 2-(((2R,4aR,6R,7R,7aR)-6-(2-amino-6-ethoxy-9H-purin-9-yl)-7-fluoro-7-methyl-2-oxidotetrahydro-4H-furo[3,2-d][1,3,2]dioxaphosphinin-2-yl)amino)propanoate] | > 120 | > 50 | > 50 | – | – | – | –
CCOc1nc(N)nc2c1ncn2[C@@H]1O[C@@H]2CO[P@@](=O)(N[C@H](C)C(=O)OC(C)C)O[C@H]2[C@@]1(C)F [Example 6, (R)-isopropyl 2-(((2S,4aR,6R,7R,7aR)-6-(2-amino-6-ethoxy-9H-purin-9-yl)-7-fluoro-7-methyl-2-oxidotetrahydro-4H-furo[3,2-d][1,3,2]dioxaphosphinin-2-yl)amino)propanoate] | > 120 | > 50 | > 50 | – | – | – | –
